Results taken from EP3875077B1, “DOSAGE FORM PROVIDING PROLONGED RELEASE OF […] SALT” (Grünenthal GmbH, priority 2020, dated 2021).
Counter-ions that a name gives are not always drawn. Like-named read-outs stand apart in the source and are kept apart here.

Test: thermodynamic solubility (saturation solubility) in various media, quantified by HPLC
Assay type: physicochemical
Details: for solubility thermodynamic at 24 h: thermodynamic from solid, read-out: thermodynamic solubility, assay expressed as base
Procedure: The thermodynamic solubility of Tapentadol hydrochloride and of Tapentadol dihydrogenphosphate (mixed form, batch with fine particles) was determined as saturation solubility in various media at various pH values. The solutions were stirred for 24 hours at 25 °C and the pH values of the solutions at the start and at the end of the experiments were measured. The dissolved amount of Tapentadol was quantified by HPLC (free base of Tapentadol).

## CC[C@@H](c1cccc(O)c1)[C@@H](C)CN(C)C [Tapentadol hydrochloride, (-)-(1R,2R)-3-(3-dimethylamino-1-ethyl-2-methyl-propyl)-phenol]
0.1 M HCl, 24 hours at 25 °C
  thermodynamic solubility, assay expressed as base: 31.2 g/100 mL
0.15N NaOH, 24 hours at 25 °C
  thermodynamic solubility, assay expressed as base: 6.6 g/100 mL
Acetate buffer pH 4.5, aqueous buffer, acetate pH 4.5, 24 hours at 25 °C
  solubility thermodynamic at 24 h: 327 mg/mL
Citrate buffer pH 6.8, aqueous buffer, citrate pH 6.8, 24 hours at 25 °C
  solubility thermodynamic at 24 h: 318 mg/mL
Citrate buffer pH 7.4, aqueous buffer, citrate pH 7.4, 24 hours at 25 °C
  solubility thermodynamic at 24 h: 319 mg/mL
Fassgf or other biorelevant, SIF sp pH 6.8, 24 hours at 25 °C
  solubility thermodynamic at 24 h: 324 mg/mL
water, 24 hours at 25 °C
  solubility thermodynamic at 24 h: 330 mg/mL
